What was measured:
[1] = system: early-stage sleeping sickness; conditions: man and animals; cited from earlier work
[2] = system: decarboxylated S-adenosylmethionine (DSAM) and S-adenosylmethionine (SAM); conditions: cited from earlier work
T. brucei = conditions: cited from earlier work
[3] = Hydrolysis / decomposition in aqueous solution; assay type: physicochemical
Description: In the case of 1,2,2-tris(methylsulfonyl)-1-methylhydrazine, this reaction occurs slowly. A 50 μM solution of this compound hydrolyzes at an initial rate of 1% per minute in phosphate buffered saline (pH 7.6) at 37° C.
Hydrolysis is expected to occur preferentially at N-2 to generate the 1,2-bis(sulfonyl)-1-methylhydrazine. The sulfonic acid and 1,2-bis(sulfonyl)-1-methylhydrazine that are generated are both ionized under these conditions. The release of protons can be used to follow the decomposition of these and related compounds. The release of protons can be assayed by following the decrease in absorbance at 560 nm of a weakly buffered (1 mM potassium phosphate) phenol red (21 mg/l) solution; initial pH 7.6 at 37° C. The assay can be calibrated using HCl standards.
(§1) The reaction of 1,2-bis(sulfonyl)-1-methylhydrazine with water at pH 7.4-7.6 at 37° C. can be followed by proton release and/or methanol generation. Methanol generation can be assayed using alcohol oxidase and measuring the resultant O2 consumption using a Gilson oxygraph. This assay can be calibrated using methanol standards. The reaction of 1,2-bis(sulfonyl)-1-methylhydrazine with water is relatively fast [a 50 μM solution of 1,2-bis(methylsulfonyl)-1-methylhydrazine decomposes at an initial rate of 12-15% per minute in phosphate buffered saline (pH 7.6) at 37° C.] compared to the hydroylsis of 1,2,2-tris(methylsulfonyl)-1-methylhydrazine. RSO2 N=NMe may also decompose by a free radical mechanism to a smaller extent and methylate by the generation of methyl radicals.

[4] = Methanol generation in vitro (spontaneous breakdown to generate reactive methyl groups); assay type: physicochemical; conditions: aqueous buffered (pH 7.6) solution
Description: as §1
Methanol was produced by these agents in aqueous solutions free from strong competing nucleophiles. Formation of this alcohol was used as a measure of the rate of spontaneous breakdown of these compounds to generate reactive methyl groups. […] These findings provide strong evidence that methylation is essential for the observed biological activity of these compounds.

trypanosomes = assay: Loss of antitrypanosomal activity upon aging of aqueous buffered solutions; assay type: in vivo; conditions: aqueous buffered (pH 7.6)
T. rhodesiense = assay: Oral trypanocidal activity (preliminary); assay type: in vivo, T. rhodesiense; mice; conditions: aqueous solutions, preliminary results
From the text: Orally active trypanocidal agents are desirable since, in areas where trypanosomiasis is endemic, other routes of drug administration frequently present problems.

[5] = system: T. rhodesiense (Y Tat 1.1); assay: Survival time of CD-1 mice infected with T. rhodesiense (trypanocidal activity); assay type: in vivo, T. rhodesiense (Y Tat 1.1); CD-1 mice; conditions: single ip dose 0.2 mmol/kg in 0.05 ml of DMSO
Description: The trypanocidal properties of several methylating agents including MeSO2 N(Me)N(SO2 Me)2 and MeSO2 N(Me)N(Me)SO2 Me were determined by measuring their effects on the survival time of CD-1 mice infected with T. rhodesiense (Y Tat 1.1), a pleimorphic strain that produces a non-relapsing disease in mice. The level of parasites in the bloodstream and body fluids increases by approximately 10-fold per day and the animals die when the parasite burden exceeds 1 to 2×10^9 cells/ml. Infection with a single viable parasite will kill a mouse in approximately 9 to 10 days.
Mice were infected ip with approximately 10^6 trypanosomes/mouse in phosphate buffered saline containing glucose. This level of parasites produces death in 4 days post-infection. These mice were treated (ip) with a single dose of drug dissolved in the appropriate vehicle 3 days after infection, when the parasitemia was 1 to 3×10^8 cells/ml of blood and the mice, if untreated, would survive for only 24 additional hours. The number of days the mice survived beyond that of the untreated controls was used as a measure of trypanocidal activity. The level of parasitemia in treated mice was measured at regular intervals to distinguish between parasite-related and drug toxicity-related deaths. No toxic deaths were observed. Mice that survived for 30 days without detectable parasitemias were considered cured. The effects of a single dose of various methylating agents on the survival time of trypanosome-bearing mice are summarized in Table II.
^a Drug that was administered was dissolved in 0.5 ml of phosphate
buffered saline containing glucose.
^b Drug that was administered was dissolved in 0.05 ml of DMSO.

L1210 leukemia = assay: Survival time of mice bearing the L1210 leukemia; assay type: in vivo
Description: The tumor-inhibitory properties of several compounds, e.g., 1,2-bis(methylsulfonyl)-1-methylhydrazine, 1-methyl-1,2,2-tris(methylsulfonyl)hydrazine, 1,2-bis(methylsulfonyl)-1,2-dimethylhydrazine and 1-(2-chloroethyl)-1,2,2-tris(methylsulfonyl)hydrazine were determined by measuring the effects of these agents on the survival time of mice bearing the L1210 leukemia as described by K. Shyam, L. A. Cosby, and A. C. Sartorelli, J. Med. Chem., 28, 525-527 (1985).
^a Administered once daily for 6 consecutive days, beginning 24 hours
after tumor transplantation with 5-10 animals being used per group.
^b Average change in body weight from onset to termination of therapy
^c % T/C = average survival time of treated/control animals ×

T. equiperdum = assay: Activity against T. equiperdum
Description: (§2) A representative agent, 1,2-bis(methylsulfonyl)-1-methylhydrazine, was also tested against several other trypanosoma species.

T. gambiense = assay: Activity against T. gambiense
Description: as §2

T. evansi = assay: Activity against T. evansi
Description: as §2

I. brucei brucei = assay: Activity against brucei brucei
Description: as §2

[6] = late-stage sleeping sickness; cited from earlier work
[7] = L1210, at optimum effective daily dose, once daily × 6 days

NCCC[C@](N)(C(=O)O)C(F)F [DFMO, alpha-difluoromethylornithine]
Efficacy against early-stage sleeping sickness [1]: effective against early-stage sleeping sickness | increase in decarboxylated S-adenosylmethionine (DSAM) and S-adenosylmethionine (SAM) [2]: 1000 fold | Induction of differentiation in T. brucei (T. brucei): induce differentiation in T. brucei

CN(NS(C)(=O)=O)S(C)(=O)=O [MeSO2 N(Me)NHSO2 Me, 1,2-bis(methylsulfonyl)-1-methylhydrazine]
Initial rate of hydrolysis / decomposition ([3]; 50 μM solution, phosphate buffered saline (pH 7.6), 37° C.): 12-15 % per minute | Decomposition in aqueous solutions ([3]; acidified solutions): can be inhibited by dosing in acidified solutions | Time within which decomposition was complete (no further methanol generated) [4]: ≤ 15 min | antitrypanosomal activity lost on aging (trypanosomes; after 0 minutes of aging): 0% | antitrypanosomal activity lost on aging (trypanosomes; after 1 minute of aging): 21% | antitrypanosomal activity lost on aging (trypanosomes; after 5 minutes of aging): 73% | antitrypanosomal activity lost on aging (trypanosomes; after 15 minutes of aging): 97% | Trypanocidal activity on oral administration compared with Table II (T. rhodesiense): comparable activity to that reported in Table II | Mean Extension of Life [5]: 11.8 days | 60-day cures, % (L1210 leukemia; [7]): 0% | % T/C (average survival time of treated/control animals × 100) (L1210 leukemia; [7]): 180% | AvΔ Wt, % (average change in body weight from onset to termination of therapy) (L1210 leukemia; mouse, in vivo): -10.7% | Activity against T. equiperdum (T. equiperdum): Activity has been demonstrated | Activity against T. gambiense (T. gambiense): Activity has been demonstrated | Activity against T. evansi (T. evansi): Activity has been demonstrated | Activity against I. brucei brucei (I. brucei brucei): Activity has been demonstrated

Nc1nc(N)nc(Nc2ccc([As]3SCC(CO)S3)cc2)n1 (centres unmarked) [melarsoprol]
patients die due to drug toxicity [6]: up to 5%
